Laboratory results taken from patent US11492347B2 (ENYO PHARMA, priority 2018, dated 2022).

Key:
[1] = tested on: H1N1 (influenza A/New Caledonia/20/99); assay: microbe, parasite or virus in culture; type: cell-based; conditions: H1N1, A549, 48 h
LXFL 1121 = assay: Cytotoxicity, propidium iodide based monolayer assay; conditions: 96 h; LXFL 1121 lung large cell carcinoma, four days of treatment, T/C=50%; read-out: Absolute IC50
Protocol: (§1) The cytotoxicity was tested for compounds of the invention on five different cell-lines, namely LXFL 1121, MAXF 401, MMXF L-636, PRXF PC-3M and UXF 1138 which are respectively lung large cell carcinoma, breast adeno carcinoma, multiple myeloma, prostate adeno carcinoma and uterine sarcoma.
(§2) A working stock solution of the test compounds was prepared in DMSO at a concentration of 33 mM or 8.25 mM, and small aliquots were stored at −20° C. On each day of an experiment, a frozen aliquot of the working stock solution was thawed and stored at room temperature prior to and during treatment.
(§3) All liquid handling steps were performed using the Tecan Freedom EVO 200 platform. First, serial 2-fold dilutions of the 33 mM DMSO working stock solution were done in DMSO. The DMSO dilutions were then diluted 1:22 into cell culture medium in an intermediate dilution plate. Finally, 10 μl taken from the intermediate dilution plate were transferred to 140 μl/well of the final assay plate. Thus, the DMSO serial dilutions were diluted 1:330 with cell culture medium, and the DMSO concentration in the assay was 0.3% v/v.
Cell lines were routinely passaged once or twice weekly and maintained in culture for up to 20 passages. […]
A modified propidium iodide (PI) based monolayer assay was used to assess the anti-cancer activity of the compounds. Briefly, cells were harvested from exponential phase cultures, counted and plated in 96 well flat-bottom microtiter plates at a cell density of 4,000 to 40,000 cells/well dependent on the cell line's growth rate. […] After an incubation period of 1-2 hours at room temperature, fluorescence (FU) was measured using the Enspire Multimode Plate Reader (excitation λ=530 nm, emission k=620 nm) to quantify the amount of attached viable cells.
Drug effects were expressed in terms of the percentage of the fluorescence signal, obtained by comparison of the mean signal in the treated wells with the mean signal of the untreated controls (expressed by the test-versus-control value, T/C−value [%]): […]

MAXF 401 = assay: as above; type: cell-based; conditions: Homo sapiens, MAXF401, 96 h; MAXF 401 breast adeno carcinoma, four days of treatment, T/C=50%; read-out: Absolute IC50
Protocol: as §1, §2, §3
(§4) Cell lines were routinely passaged once or twice weekly and maintained in culture for up to 20 passages. Most cell lines were grown at 37° C. in a humidified atmosphere with 5% CO2 in RPMI 1640 medium (25 mM HEPES, with L-glutamine, #FG1385, Biochrom, Berlin, Germany) supplemented with 10% (v/v) fetal calf serum (Sigma, Taufkirchen, Germany) and 0.05 mg/mL gentamicin (Life Technologies, Karlsruhe, Germany).
(§5) A modified propidium iodide (PI) based monolayer assay was used to assess the anti-cancer activity of the compounds. Briefly, cells were harvested from exponential phase cultures, counted and plated in 96 well flat-bottom microtiter plates at a cell density of 4,000 to 40,000 cells/well dependent on the cell line's growth rate. The individual seeding density for each cell line ensure exponential growth conditions over the whole or at least the bigger part of the treatment period. After a 24 h recovery period, to allow the cells to resume exponential growth, 10 μl of culture medium (6 control wells/cell line/plate) or of culture medium with test compounds were added. Compounds were applied at ten concentrations in 2-fold increments in duplicates up to 25 μM or 100 μM and treatment continued for four days. After four days of treatment, cells were next washed with 200 μl PBS to remove dead cells and debris, then 200 μl of a solution containing 7 μg/ml propidium iodide (PI) and 0.1% (v/v) Triton X-100 was added. After an incubation period of 1-2 hours at room temperature, fluorescence (FU) was measured using the Enspire Multimode Plate Reader (excitation λ=530 nm, emission k=620 nm) to quantify the amount of attached viable cells.
(§6) Drug effects were expressed in terms of the percentage of the fluorescence signal, obtained by comparison of the mean signal in the treated wells with the mean signal of the untreated controls (expressed by the test-versus-control value, T/C−value [%]):
(§7) [formula] IC values reported reflect the concentration of the test compound that achieves T/C=50%. Calculation was done by 4 parameter non-linear curve fit.

PRXF PC-3M = assay: as above; type: cell-based; conditions: Homo sapiens, 96 h; PRXF PC-3M prostate adeno carcinoma, four days of treatment, T/C=50%; read-out: Absolute IC50
Protocol: as §1, §2, §3, §4, §5, §6, §7

UXF 1138 = assay: as above; type: cell-based; conditions: 96 h; UXF 1138 uterine sarcoma, four days of treatment, T/C=50%; read-out: Absolute IC50
Protocol: as §1, §2, §3, §4, §5, §6, §7

[2] = target: T1, CISD1 Gene Product (mitoNEET) (Homo sapiens, UniProt Q9NZ45); assay: Stability of Fe-S cluster binding of purified NEET protein (absorbance 458 nm); type: biochemical; conditions: mitoNEET 20 μM, compound 60 μM
T1 sequence (Q9NZ45 33-108 limits assumed): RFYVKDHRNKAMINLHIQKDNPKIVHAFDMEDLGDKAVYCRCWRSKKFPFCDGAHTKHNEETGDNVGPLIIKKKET
Protocol: (§8) The modulator effect on the NEET proteins encoded by human CISD1, CISD2, and CISD3 genes by the compounds of the invention has been tested and is reported below. Particularly, the biochemical function of the NEET proteins is measured by the stability of Fe—S cluster binding of the purified NEET proteins.
(§9) The Fe—S cluster binding capacity of NEET proteins is known to be coordinated by four amino-acids in a stretch of 16 (three Cysteine and one Histidine). As the lability of the Fe—S cluster of NEET proteins is sensitive to the environment, cluster stability measurements are one of the measures of interactions of NEET proteins with small molecules and compounds. NEET protein/2Fe-2S cluster stability can be assessed by monitoring the decay in absorbance of its characteristic 458-nm peak (characteristic of the oxidized 2Fe-2S cluster) over time. Each NEET protein (mitoNEET, NAF-1 and Miner 2) was tested for its Fe—S binding in the absence or presence of a compound according to the invention (see table 4 below). The rate of cluster release (time in minutes to achieve 50% loss of bound Fe—S cluster) was compared for each NEET protein in the presence of one of the compounds of the invention (in a 1:3 protein:compound molar ratio) relative to each protein alone.
(§10) At pH 6, all the three NEET proteins (mitoNEET, NAF-1 and Miner 2) have a characteristic rate of loss of the bound Fe—S cluster that can be measured by the decrease of absorbance at wavelength 458 nm over time, using a spectrophotometer. Thus, Bis-Tris buffer (100 mM Bis-Tris pH6, 100 mM Nacl) was used at pH 6 to dilute either DMSO (Blank sample: Bis-Tris Buffer pH 6, 66 μM DMSO), DMSO and one of the three NEET proteins (Control sample: Bis-Tris Buffer pH 6, 66 μM DMSO, 20 μM purified NEET protein) or DMSO, one of the three NEET proteins and a compound of the invention (Test sample: Bis-Tris Buffer pH 6, 66 μM DMSO, 20 μM purified NEET protein, 60 μM compound of the invention).
(§11) A reaction mix containing DMSO diluted in the Bis-Tris Buffer with or without a compound of the invention was prepared. The purified NEET protein was the last component added to the reaction mix which was then aliquoted into 4 replicates in 96 wells plates. The absorbance at wavelength 458 nm was taken at 5 minutes intervals at 37° C. with a spectrofluorimeter. The assay run time for CISD2 gene product (NAF-1) was 500 minutes and 180 minutes for both the CISD1gene product (mitoNEET) and the CISD3 gene product (Miner2).
(§12) In addition to time monitoring, residual bound Fe—S cluster to NEET protein was measured at the final point of the spectrometry assay for each Test sample and compared to the Control sample data (in parenthesis table 4). This residual binding is measured by the differential percentage between the absorbance 458 nm at time zero and the absorbance 458 nm at the end of the experiment (i.e. respectively 500 or 180 minutes as described here above), showing the percentage of NEET protein still able to bind a Fe—S cluster.
(§13) Analysis of the absorbance enables the time for which 50% loss of bound Fe—S cluster is reached (i.e. a 50% absorbance decrease at 458 nm) for each Test sample and each Control sample (in parenthesis table 4) to be determined. The data are then compared to determine whether the compound of the invention stabilizes or destabilizes the NEET protein/Fe—S cluster binding.

[3] = target: T2, CISD2 Gene Product (NAF-1) (Homo sapiens, UniProt Q8N5K1); assay: as above; type: biochemical
T2 sequence (Q8N5K1 57-135 limits assumed): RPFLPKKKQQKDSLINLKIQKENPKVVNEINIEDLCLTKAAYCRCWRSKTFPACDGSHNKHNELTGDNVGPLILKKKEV
Protocol: as §8, §9, §10, §11, §12, §13

[4] = target: T3, CISD3 Gene Product (Miner2) (Homo sapiens, UniProt P0C7P0); assay: as above; type: biochemical
T3 sequence (P0C7P0 15-127): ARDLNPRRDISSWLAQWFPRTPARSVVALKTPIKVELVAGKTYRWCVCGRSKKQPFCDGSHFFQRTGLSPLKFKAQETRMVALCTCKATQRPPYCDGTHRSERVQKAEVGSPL
Protocol: as §8, §9, §10, §11, §12, §13

NFκB = NFκB reporter assay, TNFα stimulation of A549 NFκB-NanoLuciferase reporter cells; type: cell-based; conditions: Homo sapiens, 4 ng/ml TNFα, NanoGlo luciferase assay 6 hours later
From the text: Compounds of the present invention have been tested for their capacity to inhibit NFκB.
The NFκB reporter construct was made by cloning 5 NFκB responsive elements upstream of a NanoLuciferase reporter gene flanked by AAVS1 genomic sequences.
NFκB Responsive element fused with NanoLuciferase and SV40 late Poly(A) signal was amplified from pNL3.2-NFκB-Nluc (Promega) using NFKB-NLUC-F and NFKB-NLUC-R primers and inserted by Infusion (TaKaRa) in AAVS1 SA-2A-puro-pA donor plasmid (Hockemeyer et al, Nat Biotechnol. 2009, 27, 851-7) digested by Sal1. pCRISPR AAVS1-T2 expressing a guide RNA (gRNA) to target human AAVS1 (T2 target sequence) was constructed by inserting AAVS1-T2A hybridized primers in pLentiCRISPR v2-blast (Sanjana et al, Nat Methods. 2014, 11, 783-4) digested by Bsmbl.
A549 cells were transfected by the plasmids and puromycine selected for 5 days (1 μg mL-1). Then clones were obtained by limiting dilution and selected to maximize TNF dependent NFκB-NanoLuciferase induction.
The reporter cells were seeded on a 96-well plate for overnight with DMEM including 10% FBS. Test compounds were added at varying concentrations. The cells then were treated with 4 ng/ml TNFα (Peprotech, ref E251) in DMEM+10% FBS. NanoGlo luciferase assay (Promega) was carried out 6 hours later. Luminescence was measured using a Spark 20M spectrofluorimeter (Tecan). Values were normalized to the luminescence measured in untreated cells.

[5] = time to 50% cluster loss changed by more than 25% compared to the Control sample, at the concentrations tested

SMILES | IC50 [1] [nM] | IC50 (LXFL 1121) [nM] | IC50 (MAXF 401) [nM] | IC50 (PRXF PC-3M) [nM] | IC50 (UXF 1138) [nM] | Time (in minutes) to achieve 50% loss of bound cluster (Absorbance 458 nm) ([2]; pH 6, 37° C., run time 180 minutes, vehicle control 80) | Residual cluster bound at end of experiment (Percentage Absorbance 458 nm at time zero) ([2]; pH 6, at 180 minutes, vehicle control 16%) | Time (in minutes) to achieve 50% loss of bound cluster (Absorbance 458 nm) ([3]; NAF-1 20 μM, compound 60 μM, pH 6, 37° C., run time 500 minutes, vehicle control 310 or 210) | Residual cluster bound at end of experiment (Percentage Absorbance 458 nm at time zero) ([3]; NAF-1 20 μM, compound 60 μM, pH 6, at 500 minutes, vehicle control 3%) | Stabiliser or destabiliser of Fe-S cluster binding by CISD2 Gene Product (NAF-1) [3, 5] | Residual cluster bound at end of experiment (Percentage Absorbance 458 nm at time zero) ([4]; CISD3 gene product 20 μM, compound 60 μM, pH 6, at 180 minutes, vehicle control 11%) | Stabiliser or destabiliser of Fe-S cluster binding by CISD3 Gene Product (Miner2) [4, 5] | EC50 (NFκB) [nM]
CC1(C)CCc2c(sc(NC(=O)c3ccc(N4CCOCC4)cc3)c2C(=O)O)C1 [Compound #22, 6,6-Dimethyl-2-[(4-morpholinobenzoyl)amino]-5,7-dihydro-4H-benzothiophene-3-carboxylic acid] | 120 | 546 | 539 | 705 | 332 | – | – | – | – | – | – | – | –
CC1(C)Cc2c(sc(NC(=O)c3ccc(NCC4CCOCC4)cc3)c2C(=O)O)C(C)(C)C1 [Compound #132, 5,5,7,7-Tetramethyl-2-[[4-(tetrahydropyran-4-ylmethylamino)benzoyl]amino]-4,6-dihydrobenzothiophene-3-carboxylic acid] | 1.7 | – | – | – | – | 90 (80) minutes | 19% (16%) | 210 (310) minutes | 19% (3%) | destabilisers | 50% (11%) | Stabilisers | 40
